Assays:
[1] = target: T1, Oxytocin receptor (Homo sapiens, UniProt P30559); assay: Antagonist activity at human OTR expressed in HEK293 cells assessed as inhibition of agonist-induced IP1 accumulation preincubated for 30 mins followed by agonist addition measured after 1 hr by HTRF assay; assay type: functional, cell-based
T1 sequence (P30559 whole entry): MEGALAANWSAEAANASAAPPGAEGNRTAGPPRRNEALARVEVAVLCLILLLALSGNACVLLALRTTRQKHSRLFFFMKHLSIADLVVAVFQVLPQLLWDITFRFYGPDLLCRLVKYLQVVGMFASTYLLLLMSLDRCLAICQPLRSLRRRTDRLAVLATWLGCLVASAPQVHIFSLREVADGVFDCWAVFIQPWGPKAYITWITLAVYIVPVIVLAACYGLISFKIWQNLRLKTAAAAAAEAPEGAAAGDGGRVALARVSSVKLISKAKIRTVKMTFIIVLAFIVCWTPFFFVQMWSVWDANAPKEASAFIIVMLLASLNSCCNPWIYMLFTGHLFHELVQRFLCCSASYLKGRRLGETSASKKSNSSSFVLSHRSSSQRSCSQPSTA

[2] = target: T2, Vasopressin V1a receptor (Homo sapiens, UniProt P37288); assay: Antagonist activity at human vasopressin V1a receptor expressed in HEK293 cells assessed as inhibition of vasopressin-induced IP1 accumulation preincubated for 30 mins followed by vasopressin addition measured after 1 hr by HTRF assay; assay type: functional, cell-based
[3] = target: T1, Oxytocin receptor; assay: Agonist activity at human OTR expressed in HEK293 cells assessed as induction of IP1 accumulation after 1 hr by HTRF assay; assay type: functional, cell-based
[4] = target: T2, Vasopressin V1a receptor; assay: Displacement of [3H]-vasopressin from human vasopressin V1a receptor expressed in HEK293 cell membranes after 90 mins by radioligand binding assay
[5] = target: T2, Vasopressin V1a receptor; assay: Agonist activity at human vasopressin V1a receptor expressed in HEK293 cells assessed as induction of IP1 accumulation after 1 hr by HTRF assay; assay type: functional, cell-based
[6] = target: T1, Oxytocin receptor; assay: Displacement of [3H]-oxytocin from human OTR expressed in HEK293 cell membranes after 90 mins by radioligand binding assay

T2 sequence (P37288 whole entry): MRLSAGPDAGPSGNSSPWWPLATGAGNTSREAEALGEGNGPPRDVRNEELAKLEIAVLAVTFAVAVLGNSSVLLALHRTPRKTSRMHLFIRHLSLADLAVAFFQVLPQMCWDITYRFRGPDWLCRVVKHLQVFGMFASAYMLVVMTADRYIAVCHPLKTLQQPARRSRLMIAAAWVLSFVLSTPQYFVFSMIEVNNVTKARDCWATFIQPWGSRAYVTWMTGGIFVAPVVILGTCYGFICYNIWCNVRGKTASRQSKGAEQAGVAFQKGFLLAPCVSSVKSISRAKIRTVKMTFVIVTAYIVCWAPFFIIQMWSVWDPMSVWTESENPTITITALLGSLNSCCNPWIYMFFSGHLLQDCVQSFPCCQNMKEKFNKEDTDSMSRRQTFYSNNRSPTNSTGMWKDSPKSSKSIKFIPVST

| Compound | IC50 [1] [µM] | IC50 [2] [µM] | EC50 [3] [µM] | Ki [4] [µM] | EC50 [5] [µM] | Ki [6] [µM] |
| --- | --- | --- | --- | --- | --- | --- |
| COc1cc(CN2CCN(c3ccccc3CC(=O)N3Cc4cnn(C)c4Nc4ccccc43)CC2)cc(OC)c1 | > 10 | > 10 | > 10 | 6.81 | > 10 | > 10 |
| Cn1ncc2c1Nc1ccccc1N(C(=O)Cc1ccc(N3CCN(Cc4cc(O)cc(O)c4)CC3)cc1)C2 | > 10 | > 10 | > 10 | 0.795 | > 10 | > 10 |
| Cn1ncc2c1Nc1ccccc1N(C(=O)CCc1ccc(N3CCN(Cc4cc(O)cc(O)c4)CC3)cc1)C2 | > 10 | > 10 | > 10 | 1.76 | > 10 | > 10 |
| COc1cc(CN2CCN(c3ccc(CC(=O)N4Cc5cnn(C)c5Nc5ccccc54)cc3)CC2)cc(OC)c1 | > 10 | > 10 | > 10 | 1.91 | > 10 | > 10 |
| COc1cc(CN2CCN(c3ccccc3CCC(=O)N3Cc4cnn(C)c4Nc4ccccc43)CC2)cc(OC)c1 | > 10 | > 10 | > 10 | 1.06 | > 10 | > 10 |
| Cn1ncc2c1Nc1ccccc1N(C(=O)CCc1ccccc1N1CCN(Cc3cc(O)cc(O)c3)CC1)C2 | > 10 | > 10 | > 10 | 0.251 | > 10 | > 10 |
| Cn1ncc2c1Nc1ccccc1N(C(=O)CCc1cccc(N3CCN(Cc4cc(O)cc(O)c4)CC3)c1)C2 | > 10 | > 10 | > 10 | 0.874 | > 10 | > 10 |
| Cn1ncc2c1Nc1ccccc1N(C(=O)Cc1cccc(N3CCN(Cc4cc(O)cc(O)c4)CC3)c1)C2 | > 10 | > 10 | > 10 | 0.643 | > 10 | > 10 |
| Cn1ncc2c1Nc1ccccc1N(C(=O)Cc1ccccc1N1CCN(Cc3cc(O)cc(O)c3)CC1)C2 | > 10 | > 10 | > 10 | 1.94 | > 10 | > 10 |
| COc1cc(CN2CCN(c3cccc(CCC(=O)N4Cc5cnn(C)c5Nc5ccccc54)c3)CC2)cc(OC)c1 | > 10 | > 10 | > 10 | 3.34 | > 10 | > 10 |
| COc1cc(CN2CCN(c3cccc(CC(=O)N4Cc5cnn(C)c5Nc5ccccc54)c3)CC2)cc(OC)c1 | > 10 | > 10 | > 10 | 2.1 | > 10 | > 10 |
| COc1cc(CN2CCN(c3ccc(CCC(=O)N4Cc5cnn(C)c5Nc5ccccc54)cc3)CC2)cc(OC)c1 | > 10 | > 10 | > 10 | 6.25 | > 10 | > 10 |
